Counter-ions that a name gives are not always drawn.
Experiments:
[1] = target: T1, cytosolic kinase domain of KDR kinase (Homo sapiens, UniProt P35968); experiment: KDR Assay (ELISA, phosphorylation of poly(Glu4;Tyr1)); assay type: biochemical; details: 3.3 µM ATP, 60 minutes at room temperature, 30 ng KDR kinase domain
T1 construct: The cytosolic kinase domain of KDR kinase was expressed as a 6His fusion protein in Sf9 insect cells; 6His; made in house; host or cells: Sf9 insect cells
Description: The cytosolic kinase domain of KDR kinase was expressed as a 6His fusion protein in Sf9 insect cells. The KDR kinase domain fusion protein was purified over a Ni^++ chelating column. Ninety-six well ELISA plates were coated with 5 µg poly(Glu4;Tyr1) (Sigma Chemical Co., St Louis, MO) in 100 µl HEPES buffer (20 mM HEPES, pH 7.5, 150 mM NaCl, 0.02% Thimerosal) at 4° overnight. Before use, the plate was washed with HEPES, NaCl buffer and the plates were blocked with 1% BSA, 0.1% Tween 20 in HEPES, NaCl buffer.
Test compounds were serially diluted in 100% DMSO from 4 mM to 0.12 µM in half-log dilutions. These dilutions were further diluted twenty fold in H2O to obtain compound solutions in 5% DMSO. Following loading of the assay plate with 85 µl of assay buffer (20 mM HEPES, pH 7.5, 100 mM KCl, 10 mM MgCl2, 3 mM MnCl2, 0.05% glycerol, 0.005% Triton X-100, 1 mM -mercaptoethanol, with or without 3.3 µM ATP), 5 µl of the diluted compounds were added to a final assay volume of 100 µl. Final concentrations were between 10 µM, and 0.3 nM in 0.25% DMSO. The assay was initiated by the addition of 10µl (30 ng) of KDR kinase domain.
The assay was incubated with test compound or vehicle alone with gentle agitation at room temperature for 60 minutes. The wells were washed and phosphotyrosines (PY) were probed with an anti-phosphotyrosine (PY), mAb clone 4G10 (Upstate Biotechnology, Lake Placid, NY). PY/anti-PY complexes were detected with an anti-mouse IgG/HRP conjugate (Amersham International plc, Buckinghamshire, England). Phosphotyrosine was quantitated by incubating with 100 µl 3, 3', 5, 5' tetramethylbenzidine solution (Kirkegaard and Perry, TMB Microwell 1 Component peroxidase substrate). Color development was arrested by the addition of 100 µl 1% HCl-based stop solution (Kirkegaard and Perry, TMB I Component Stop Solution).
Optical densities were determined spectrophotometrically at 450 nm in a 96-well plate reader, SpectraMax 250 (Molecular Devices). Background (no ATP in assay) OD values were subtracted from all ODs and the percent inhibition was calculated according to the equation: % Inhibition =((OD(vehicle control) - OD(with compound)) X 100)/(OD(vehicle control) - OD(no ATP added)) [formula]
The IC50 values were determined with a least squares analysis program using compound concentration versus percent inhibition. Compounds that have IC50 < 100 nM in this assay include those of Examples 1, 2, 4, 5, 6, 7, 10, 11, 12, 13, 14, 15, 16 and 23. Compounds that have IC50 values between 100 nM and 1,000 nM include those of examples 8, 9 and 22. Those that have measured IC50 values > 1,000 nM include those of examples 3, 17, 18 and 21.

[2] = target: T2, NIH3T3 cells expressing the full length KDR receptor (Homo sapiens, UniProt P35968); experiment: Cell mechanistic assay - Inhibition of 3T3 KDR phosphorylation; assay type: cell-based; details: VEGF (30 ng / ml) for 10 minutes after 30 minutes with compound; KDR phosphotyrosine ELISA
T2 construct: NIH3T3 cells expressing the full length KDR receptor; expressed in transfected cells; host or cells: NIH3T3 cells (G418 selection)
Description: NIH3T3 cells expressing the full length KDR receptor were grown in DMEM (Life Technologies, Inc., Grand Island, NY) supplemented with 10% newborn calf serum, low glucose, 25 mM /L sodium pyruvate, pyridoxine hydrochloride and 0.2 mg/ ml of G418 (Life Technologies Inc., Grand Island, NY). The cells were maintained in collagen I-coated T75 flasks (Becton Dickinson Labware, Bedford, MA) in a humidified 5% CO2 atmosphere at 37°C.
Fifteen thousand cells were plated into each well of a collagen I-coated 96-well plate in the DMEM growth medium. Six hours later, the cells were washed and the medium was replaced with DMEM without serum. After overnight culture to quiesce the cells, the medium was replaced by Dulbecco's phosphate-buffered saline (Life Technologies Inc., Grand Island, NY) with 0.1% bovine albumin (Sigma Chemical Co., St Louis, MO). After adding various concentrations (0-300 nM) of test compounds to the cells in 1% final concentration of DMSO, the cells were incubated at room temperature for 30 minutes. The cells were then treated with VEGF (30 ng / ml) for 10 minutes at room temperature. Following VEGF stimulation, the buffer was removed and the cells were lysed by addition of 150 µl of extraction buffer (50 mM Tris, pH 7.8, supplemented with 10% glycerol, 50 mM BGP, 2 mM EDTA, 10 mM NaF, 0.5 mM NaVO4, and 0.3% TX-100) at 4°C for 30 minutes.
To assess receptor phosphorylation, 100 microliters of each cell lysate was added to the wells of an ELISA plate precoated with 300 ng of antibody C20 (Santa Cruz Biotechnology, Inc., Santa Cruz , CA). Following a 60-minute incubation, the plate was washed and bound KDR was probed for phosphotyrosine using an anti-phosphotyrosine mAb clone 4G10 (Upstate Biotechnology, Lake Placid, NY). The plate was washed and wells were incubated with anti-mouse IgG/HRP conjugate (Amersham International plc, Buckinghamshire, England) for 60 minutes. Wells were washed and phosphotyrosine was quantitated by addtion of 100 µl per well of 3,3',5,5' tetramethylbenzidine (Kirkegaard and Perry, TMB Microwell 1 Component peroxidase substrate) solution. Color development was arrested by the addition of 100 µl 1% HCl based stop solution (Kirkegaard and Perry, TMB 1 Component Stop Solution).
Optical densities (OD) were determined spectrophotometrically at 450 nm in a 96-well plate reader (SpectraMax 250, Molecular Devices). Background (no VEGF added) OD values were subtracted from all ODs and percent inhibition was calculated according to the equation: % Inhibition =((OD(VEGF control) - OD(with test compound)) X 100)/(OD(VEGF control) - OD(no VEGF added)) [formula]
IC50s were determined with a least squares analysis program using compound concentration versus percent inhibition. Compounds that have IC50 < 20 nM in this assay include those of Examples 2, 6, 7, 11, 15 and 16. Compounds that have IC50 values between 20 nM and 50 nM include those of examples 1, 4, 5, 8, 10, 12, 13 and 14. Those that have measured IC50 values > 50 nM include those of examples 9 and 21.

T2 sequence (P35968 20-1356): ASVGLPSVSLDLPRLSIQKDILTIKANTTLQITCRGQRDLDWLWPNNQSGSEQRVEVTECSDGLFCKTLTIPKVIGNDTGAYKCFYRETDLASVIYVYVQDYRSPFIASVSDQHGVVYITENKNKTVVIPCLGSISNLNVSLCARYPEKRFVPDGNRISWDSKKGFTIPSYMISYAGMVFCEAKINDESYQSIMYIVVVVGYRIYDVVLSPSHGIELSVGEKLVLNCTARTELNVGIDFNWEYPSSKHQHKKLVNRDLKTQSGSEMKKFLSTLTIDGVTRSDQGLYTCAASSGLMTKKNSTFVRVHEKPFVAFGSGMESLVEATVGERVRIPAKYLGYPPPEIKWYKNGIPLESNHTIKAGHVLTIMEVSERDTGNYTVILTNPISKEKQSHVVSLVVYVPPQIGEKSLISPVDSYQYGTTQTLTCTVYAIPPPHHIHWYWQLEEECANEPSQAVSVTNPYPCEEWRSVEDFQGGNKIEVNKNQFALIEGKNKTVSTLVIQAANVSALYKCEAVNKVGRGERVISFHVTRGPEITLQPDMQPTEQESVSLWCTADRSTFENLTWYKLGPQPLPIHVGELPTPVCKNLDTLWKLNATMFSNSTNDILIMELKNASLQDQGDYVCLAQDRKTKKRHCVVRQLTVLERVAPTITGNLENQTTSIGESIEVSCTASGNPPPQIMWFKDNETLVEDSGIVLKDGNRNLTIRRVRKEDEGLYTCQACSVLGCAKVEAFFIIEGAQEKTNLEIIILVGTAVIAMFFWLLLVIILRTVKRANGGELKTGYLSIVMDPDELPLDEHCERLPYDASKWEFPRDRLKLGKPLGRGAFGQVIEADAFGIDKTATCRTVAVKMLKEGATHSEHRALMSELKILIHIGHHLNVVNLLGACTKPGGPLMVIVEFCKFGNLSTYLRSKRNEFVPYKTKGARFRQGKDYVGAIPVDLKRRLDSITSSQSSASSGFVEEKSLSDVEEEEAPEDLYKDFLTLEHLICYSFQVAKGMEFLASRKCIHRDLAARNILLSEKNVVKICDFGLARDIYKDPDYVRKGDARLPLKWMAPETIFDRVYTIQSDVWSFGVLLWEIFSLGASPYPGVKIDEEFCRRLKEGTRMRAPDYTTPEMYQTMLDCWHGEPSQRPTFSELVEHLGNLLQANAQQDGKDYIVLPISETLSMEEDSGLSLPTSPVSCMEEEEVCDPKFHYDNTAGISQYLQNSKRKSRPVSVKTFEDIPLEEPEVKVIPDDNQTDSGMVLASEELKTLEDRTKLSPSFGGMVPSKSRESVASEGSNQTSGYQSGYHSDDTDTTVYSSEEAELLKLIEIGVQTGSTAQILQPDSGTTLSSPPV
T1 sequence (P35968 834-1162 limits assumed): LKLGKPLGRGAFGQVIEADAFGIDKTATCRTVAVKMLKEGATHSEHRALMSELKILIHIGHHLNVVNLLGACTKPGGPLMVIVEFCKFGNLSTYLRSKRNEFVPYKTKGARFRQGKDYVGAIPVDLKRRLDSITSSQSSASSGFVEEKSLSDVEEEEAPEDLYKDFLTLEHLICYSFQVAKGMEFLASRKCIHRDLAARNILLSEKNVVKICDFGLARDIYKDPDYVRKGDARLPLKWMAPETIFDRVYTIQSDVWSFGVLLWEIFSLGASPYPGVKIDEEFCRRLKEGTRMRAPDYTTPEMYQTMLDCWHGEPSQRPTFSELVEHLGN

SMILES	IC50 [1]	IC50 [2]
CNC(=O)c1cc(COc2nnc(Nc3ccc(Cl)cc3)c3ccccc23)ccn1 [Example 4, 4-[4-(4-Chlorophenylamino)phthalazin-1-yloxymethyl]pyridin-2-yl carboxylic acid methylamide]	< 100 nM	20 to 50 nM
NC(=O)c1cc(COc2nnc(Nc3ccc(Cl)cc3)c3ccccc23)ccn1 [Example 5, 4-[4-(4-Chlorophenylamino)phthalazin-1-yloxymethyl]pyridin-2-yl carboxylic acid amide]	–	20 to 50 nM
CNC(=O)c1cc(Cc2nnc(Nc3cccc(Br)c3)c3ccccc23)ccn1 [Example 6, 4-[4-(3-Bromophenylamino)phthalazin-1-ylmethyl]-pyridin-2-yl carboxylic acid methylamide]	< 100 nM	< 20 nM
Clc1ccc(Nc2nnc(Cc3ccnc(-c4ccccc4)c3)c3ccccc23)cc1 [Example 8, 1-(4-chlorophenylamino)-4-[(2-phenyl-4-pyridyl)methyl]phthalazine]	100 to 1000 nM	20 to 50 nM
c1ccc2c(Nc3ccc(Oc4ccncc4)cc3)nnc(Cc3ccncc3)c2c1 [Example 9, 1-[4-(4-pyridyloxy)phenylamino]-4-(4-pyridylmethyl)phthalazine]	100 to 1000 nM	> 50 nM
c1ccc2c(Nc3ccc4c(c3)CCC4)nnc(Cc3ccncc3)c2c1 [Example 10, 1-(indan-5-ylamino)-4-(4-pyridylmethyl)phthalazine]	< 100 nM	20 to 50 nM
CNC(=O)c1cc(Cc2nnc(Nc3ccc(Cl)cc3)c3ccccc23)ccn1 [Example 12, 4-[4-(4-Chlorophenylamino)phthalazin-1-ylmethyl]pyridin-2-yl carboxylic acid methylamide dimethanesulfonate]	–	20 to 50 nM
NC(=O)c1cc(Cc2nnc(Nc3ccc(Cl)cc3)c3ccccc23)ccn1 [Example 14, 4-[4-(4-Chlorophenylamino)phthalazin-1-ylmethyl]pyridin-2-yl carboxylic acid amide dimethanesulfonate]	–	20 to 50 nM
NC(=O)c1cc(COc2nnc(Nc3ccc(Cl)cc3)c3ccccc23)ccn1 [Example 16, 4-[4-(4-Chlorophenylamino)phthalazin-1-yloxymethyl]pyridin-2-yl carboxylic acid amide dimethanesulfonate]	–	< 20 nM
Clc1ccc(Nc2nnc(Sc3nnc(-c4ccncc4)[nH]3)c3ccccc23)cc1 [Example 17, 1-(4-chlorophenylamino)-4-[5-(4-pyridyl)-1H-1,2,4-triazolyl-3-ylthio]phthalazine]	> 1000 nM	–
c1ccc2c(Nc3ccc4ncsc4c3)nnc(Cc3ccncc3)c2c1 [Example 23, 1-(benzothiazol-6-ylamino)-4-(4-pyridylmethyl)phthalazine]	< 100 nM	–

Other lines, results leading:

IC50 [1]	IC50 [2]	SMILES
> 1000 nM	–	Clc1ccc(Nc2nnc(OCc3cccnc3)c3ccccc23)cc1 [Example 3, 1-(4-chlorophenylamino)-4-(3-pyridylmethoxy)phthalazine]
< 100 nM	< 20 nM	NC(=O)c1cc(Cc2nnc(Nc3cccc(Br)c3)c3ccccc23)ccn1 [Example 7, 4-[4-(3-Bromophenylamino)phthalazin-1-ylmethyl]-pyridin-2-yl carboxylic acid amide]
–	< 20 nM	CNC(=O)c1cc(Cc2nnc(Nc3ccc(Cl)cc3)c3ccccc23)ccn1 [Example 11, 4-[4-(4-Chlorophenylamino)phthalazin-1-ylmethyl]pyridin-2-yl carboxylic acid methylamide dihydrochloride]
< 100 nM	20 to 50 nM	NC(=O)c1cc(Cc2nnc(Nc3ccc(Cl)cc3)c3ccccc23)ccn1 [Example 13, 4-[4-(4-Chlorophenylamino)phthalazin-1-ylmethyl]pyridin2-yl carboxylic acid amide dihydrochloride]
< 100 nM	< 20 nM	NC(=O)c1cc(COc2nnc(Nc3ccc(Cl)cc3)c3ccccc23)ccn1 [Example 15, 4-[4-(4-Chlorophenylamino)phthalazin-1-yloxymethyl]pyridin-2-yl carboxylic acid amide dihydrochloride]
> 1000 nM	–	CC(C)c1ccc(Nc2nnc(Sc3nnc(-c4ccncc4)[nH]3)c3ccccc23)cc1 [Example 18, 1-(4-isopropylphenylamino)-4-[5-(4-pyridyl)-1H-1,2,4-triazolyl-3-ylthio]phthalazine]
100 to 1000 nM	–	N#CC(c1ccncc1)c1nnc(Nc2ccc3c(c2)CCC3)c2ccccc12 (centres unmarked) [Example 22, 1-(indan-5-ylamino)-4-(4-pyridylcyanomethyl)phthalazine]
